Results taken from ChEMBL document CHEMBL1141107, “A novel series of non-carboxylic acid, non-hydantoin inhibitors of aldose reductase with potent oral activity in diabetic rat models: 6-(5-chloro-3-methylbenzofuran-2-sulfonyl)-2H-pyridazin-3-one and congeners” (J Med Chem, 2005).

Experiments:
[1] = tested on: Rattus norvegicus; test: Inhibition of sorbitol accumulation in diabetic rat by acute test dosed at 20 mg/kg; type: functional
[2] = tested on: Rattus norvegicus; test: Inhibition of sorbitol accumulation in diabetic rat by chronic test dosed at 10 mg/kg; type: functional
[3] = tested on: Rattus norvegicus; test: Inhibition of fructose accumulation in diabetic rat after oral gavage administration, pH 4.5 by chronic test dosed at 10 mg/kg; type: functional
[4] = tested on: Rattus norvegicus; test: Inhibition of fructose accumulation in diabetic rat after oral gavage administration, pH 4.5 by chronic test dosed at 20 mg/kg; type: functional
[5] = tested on: Rattus norvegicus; test: Inhibition of sorbitol accumulation in diabetic rat by chronic test dosed at 20 mg/kg; type: functional
[6] = tested on: Rattus norvegicus; test: Inhibition of sorbitol accumulation in diabetic rat by acute test dosed at 10 mg/kg; type: functional
[7] = tested on: Rattus norvegicus; test: Inhibition of fructose accumulation in diabetic rat after oral gavage administration incubated at RT for 60 minutes in pH 4.5 by acute test dosed at 10 mg/kg; type: functional; conditions: 1 h
[8] = molecular target: Aldo-keto reductase family 1 member B1 (Homo sapiens, UniProt P15121); test: In vitro inhibitroy concentration against Aldose reductase incubated at 24 degree C for 15 minutes in pH 7.0
[9] = tested on: Rattus norvegicus; test: Inhibition of fructose accumulation in diabetic rat after oral gavage administration incubated at RT for 60 minutes in pH 4.5 by acute test dosed at 20 mg/kg; type: functional; conditions: 1 h
[10] = tested on: Rattus norvegicus; test: Inhibition of sorbitol accumulation in diabetic rat by acute test dosed at 5 mg/kg; type: functional
[11] = tested on: Rattus norvegicus; test: Inhibition of sorbitol accumulation in diabetic rat by chronic test dosed at 5 mg/kg; type: functional
[12] = tested on: Rattus norvegicus; test: Inhibition of fructose accumulation in diabetic rat after oral gavage administration, pH 4.5 by chronic test; type: functional
[13] = tested on: Rattus norvegicus; test: Inhibition of sorbitol accumulation in diabetic rat by acute test dosed at 3 mg/kg; type: functional
[14] = tested on: Rattus norvegicus; test: Inhibition of fructose accumulation in diabetic rat after oral gavage administration incubated at RT for 60 minutes in pH 4.5 by acute test dosed at 3 mg/kg; type: functional; conditions: 1 h
[15] = organism: Rattus norvegicus; test: Inhibition of sorbitol accumulation in diabetic rat by chronic test; type: functional
[16] = tested on: Rattus norvegicus; test: Inhibition of sorbitol accumulation in diabetic rat by acute test dosed at 50 mg/kg; type: functional
[17] = tested on: Rattus norvegicus; test: Dose required for fructose accumulation in diabetic rat after oral gavage administration incubated at RT for 60 minutes in pH 4.5 by acute test; type: functional
[18] = organism: Rattus norvegicus; test: Dose required for inhibition of sorbitol accumulation in diabetic rat by acute test; type: functional

Structure (SMILES) | IC50 [8] | inhibition in vivo at 20 mg/kg [1] | inhibition in vivo at 10 mg/kg [6] | inhibition in vivo at 10 mg/kg [7] | inhibition in vivo at 20 mg/kg [9] | also measured
O=c1ccc(S(=O)(=O)c2cccc3ccccc23)n[nH]1 | 150 nM | 95% | 88% | 49% | 55% | inhibition in vivo at 10 mg/kg [2]: 60%; inhibition in vivo at 10 mg/kg [3]: 31%; inhibition in vivo at 20 mg/kg [4]: 43%; inhibition in vivo at 20 mg/kg [5]: 70%
O=c1ccc(S(=O)(=O)c2cccc(C(F)(F)F)c2)n[nH]1 | 175 nM | 45% |  |  | 17% | 
O=c1ccc(S(=O)(=O)Cc2ccc(Br)cc2F)n[nH]1 | 667 nM |  |  |  |  | 
O=c1ccc(S(=O)(=O)c2cc3cccc(Cl)c3[nH]2)n[nH]1 | 450 nM | 40% |  |  | 44% | 
O=c1ccc(S(=O)(=O)c2oc3ccccc3c2-c2ccccc2)n[nH]1 | 23 nM |  |  |  |  | 
O=S(=O)(c1ccc(Cl)c(Cl)c1)c1ccc(O)nn1 |  | 98% | 84% | 60% | 85% | 
O=c1ccc(S(=O)(=O)c2ccccc2F)n[nH]1 | 540 nM | 91% | 79% | 34% | 56% | 
O=c1ccc(S(=O)(=O)c2cc3cc4c(cc3[nH]2)OCO4)n[nH]1 | 3800 nM |  |  |  |  | 
O=c1ccc(S(=O)(=O)c2cccc(Cl)c2Cl)n[nH]1 | 55 nM | 98% | 77% |  |  | inhibition in vivo at 5 mg/kg [10]: 55%; inhibition in vivo at 20 mg/kg [5]: 89%; inhibition in vivo at 5 mg/kg [11]: 81%
O=c1ccc(S(=O)(=O)c2cc3ccc(F)cc3[nH]2)n[nH]1 | 1400 nM |  |  |  |  | 
O=c1ccc(S(=O)(=O)c2cc3cc(Cl)cc(Cl)c3o2)n[nH]1 | 87 nM |  | 32% | 39% |  | 
O=c1ccc(S(=O)(=O)c2cc3cc(Cl)ccc3o2)n[nH]1 |  |  |  | 39% |  | 
O=c1ccc(S(=O)(=O)c2cc3cc(Cl)ccc3[nH]2)n[nH]1 | 1100 nM |  |  |  |  | 
COc1ccc2oc(S(=O)(=O)c3ccc(=O)[nH]n3)cc2c1 | 230 nM | 49% |  |  | 34% | 
O=c1ccc(S(=O)(=O)c2cc3ccccc3o2)n[nH]1 |  |  |  | 34% |  | 
O=S(=O)(c1ccc(O)nn1)c1ccc(Br)cc1F |  |  | 81% | 67% |  | 

Structure (SMILES) | IC50 [8] | inhibition in vivo at 20 mg/kg [1] | inhibition in vivo at 10 mg/kg [6] | inhibition in vivo at 10 mg/kg [7] | inhibition in vivo at 20 mg/kg [9] | also measured
O=c1ccc(S(=O)(=O)c2ccc(F)cc2F)n[nH]1 | 870 nM |  |  |  |  | 
O=c1ccc(S(=O)(=O)c2cc3cc(Cl)cc(Cl)c3[nH]2)n[nH]1 | 200 nM |  |  |  |  | 
O=S(=O)(c1ccc(O)nn1)c1oc2ccccc2c1-c1ccc(F)cc1 | 49 nM |  | 66% | 50% |  | 
O=c1ccc(S(=O)(=O)c2cc3ccc(Cl)cc3[nH]2)n[nH]1 | 645 nM |  |  |  |  | 
O=c1ccc(S(=O)(=O)c2ccc(C(F)(F)F)cc2)n[nH]1 | 360 nM | 67% | 44% | 10% | 24% | 
O=c1ccc(S(=O)(=O)c2ccc(Br)cc2)n[nH]1 | 350 nM |  |  |  |  | inhibition in vivo at 50 mg/kg [16]: 26%
O=c1ccc(S(=O)(=O)c2ccc(Cl)cc2)n[nH]1 | 380 nM |  | 65% | 52% |  | 
O=c1ccc(S(=O)(=O)c2oc3ccc(Cl)cc3c2-c2ccccc2)n[nH]1 | 34 nM | 27% |  |  | 20% | 
O=c1ccc(S(=O)(=O)c2ccc(F)cc2)n[nH]1 | 474 nM |  |  |  |  | inhibition in vivo at 50 mg/kg [16]: 81%
O=c1ccc(S(=O)(=O)c2cc3ccccc3[nH]2)n[nH]1 | 590 nM | 100% | 75% | 58% | 82% | inhibition in vivo at 20 mg/kg [4]: 50%; inhibition in vivo at 20 mg/kg [5]: 67%
O=S(=O)(c1ccc(O)nn1)c1ccccc1Cl |  | 101% | 96% | 68% | 81% | 
O=c1ccc(S(=O)(=O)c2cc3ccccc3s2)n[nH]1 | 180 nM | 46% |  |  | 22% | 
O=S(=O)(c1ccc(O)nn1)c1ccc(F)cc1Cl |  | 106% | 95% | 87% | 97% | 
O=S(=O)(c1ccc(O)nn1)c1ccc(Cl)cc1Cl |  |  |  |  |  | ED50 [17]: 3 mg/kg; ED50 [18]: 0.8 mg/kg
O=S(=O)(c1ccc(O)nn1)c1ccccc1Br |  |  |  |  |  | inhibition in vivo at 50 mg/kg [16]: 55%

Further lines, with some results ahead:

IC50 [8] | Structure (SMILES) | inhibition in vivo at 20 mg/kg [1] | inhibition in vivo at 10 mg/kg [6] | inhibition in vivo at 10 mg/kg [7] | inhibition in vivo at 20 mg/kg [9] | also measured
500 nM | O=S(=O)(Cc1ccccc1C(F)(F)F)c1ccc(O)nn1 |  |  |  |  | 
35 nM | O=c1ccc(S(=O)(=O)Cc2cccc(Cl)c2Cl)n[nH]1 | 65% |  |  | 48% | 
257 nM | O=S(=O)(Cc1cccc(F)c1F)c1ccc(O)nn1 | 82% |  |  | 51% | 
160 nM | Cc1ccc2sc(S(=O)(=O)c3ccc(O)nn3)cc2c1 |  |  |  | 7% | 
240 nM | O=S(=O)(c1cccc(Cl)c1)c1ccc(O)nn1 |  |  |  |  | 
13 nM | Cc1ccc2oc(S(=O)(=O)c3ccc(O)nn3)c(C)c2c1 |  | 21% | 18% |  | 
54 nM | O=S(=O)(Cc1cccc(Cl)c1F)c1ccc(O)nn1 | 74% |  |  | 64% | 
140 nM | Cc1c(S(=O)(=O)c2ccc(O)nn2)oc2ccccc12 |  |  | 43% | 56% | 
422 nM | O=S(=O)(Cc1ccccc1F)c1ccc(O)nn1 |  |  |  |  | 
190 nM | Cc1c(S(=O)(=O)c2ccc(O)nn2)oc2cc(Cl)ccc12 |  | 40% | 28% |  | 
360 nM | O=S(=O)(c1ccc2ccccc2c1)c1ccc(O)nn1 |  |  |  |  | inhibition in vivo at 20 mg/kg [5]: 74%; Inhibition [12]: 51%
26 nM | O=c1ccc(S(=O)(=O)Cc2c(F)cccc2Cl)n[nH]1 | 42% |  |  | 45% | 
55 nM | Cc1c(S(=O)(=O)c2ccc(O)nn2)sc2ccc(Cl)cc12 |  | 83% | 51% |  | inhibition in vivo at 3 mg/kg [13]: 49%; inhibition in vivo at 3 mg/kg [14]: 29%
92 nM | CC(C)c1c(S(=O)(=O)c2ccc(O)nn2)oc2ccc(Cl)cc12 |  |  |  |  | Inhibition [12]: 14%; Inhibition [15]: 48%
52 nM | O=c1ccc(S(=O)(=O)Cc2c(Cl)cccc2Cl)n[nH]1 |  | 42% | 24% |  | 
118 nM | O=S(=O)(Cc1ccccc1Cl)c1ccc(O)nn1 |  |  |  |  | 
72 nM | O=S(=O)(Cc1cccc(C(F)(F)F)c1)c1ccc(O)nn1 | 88% |  |  | 70% | inhibition in vivo at 20 mg/kg [4]: 42%; inhibition in vivo at 20 mg/kg [5]: 65%
6 nM | CCc1c(S(=O)(=O)c2ccc(O)nn2)oc2ccc(Cl)cc12 |  |  |  |  | inhibition in vivo at 10 mg/kg [2]: 48%; inhibition in vivo at 10 mg/kg [3]: 24%
44 nM | O=c1ccc(S(=O)(=O)Cc2cccc(C(F)(F)F)c2F)n[nH]1 | 61% |  |  | 56% | 
